Measured values from article PMC7265341, “Quantifying CDK inhibitor selectivity in live cells” (Nature Communications, 2020).
pIC50: −log10 of the molar value. Like-named read-outs stand apart in the source and are kept apart here.

Experiments:
[1] = biological target: CDK1/Cyclin E1 (Homo sapiens, UniProt P06493); experiment: NanoBRET live-cell target engagement, CDK1-NanoLuc/Cyclin E1 in HEK-293; format: binding; details: CDK1/E1; for pIC50: read-out: IC50
[2] = biological target: CDK4/Cyclin D1 (Homo sapiens, UniProt P11802); experiment: NanoBRET live-cell target engagement, NanoLuc-CDK4/Cyclin D1 in HEK-293; format: binding; details: CDK4/D1; for pIC50: read-out: IC50
Sequence of CDK4/Cyclin D1 (P11802 whole entry): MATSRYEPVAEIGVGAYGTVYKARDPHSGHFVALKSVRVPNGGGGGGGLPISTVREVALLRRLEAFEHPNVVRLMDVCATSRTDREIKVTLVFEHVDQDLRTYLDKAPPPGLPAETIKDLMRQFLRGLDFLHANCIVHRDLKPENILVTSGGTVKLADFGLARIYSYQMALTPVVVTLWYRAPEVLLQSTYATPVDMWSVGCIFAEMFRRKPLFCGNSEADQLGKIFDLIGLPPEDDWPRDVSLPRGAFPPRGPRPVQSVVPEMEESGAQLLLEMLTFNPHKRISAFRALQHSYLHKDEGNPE
Sequence of CDK4/Cyclin D1 (P24385 whole entry partner): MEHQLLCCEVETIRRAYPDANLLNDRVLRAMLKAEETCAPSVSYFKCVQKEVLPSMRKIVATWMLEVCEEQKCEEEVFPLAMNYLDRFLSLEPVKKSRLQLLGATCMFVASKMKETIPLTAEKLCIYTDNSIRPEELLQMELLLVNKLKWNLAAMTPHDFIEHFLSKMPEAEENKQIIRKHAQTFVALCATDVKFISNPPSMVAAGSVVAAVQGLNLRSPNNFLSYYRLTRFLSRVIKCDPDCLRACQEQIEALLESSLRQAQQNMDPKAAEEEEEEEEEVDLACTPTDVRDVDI

[3] = biological target: CDK5/CDK5R1 (Homo sapiens, UniProt Q00535); experiment: NanoBRET live-cell target engagement, CDK5-NanoLuc/CDK5R1 in HEK-293; format: binding; details: CDK5/CDK5R1; for pIC50: read-out: IC50
Sequence of CDK5/CDK5R1 (Q00535 whole entry): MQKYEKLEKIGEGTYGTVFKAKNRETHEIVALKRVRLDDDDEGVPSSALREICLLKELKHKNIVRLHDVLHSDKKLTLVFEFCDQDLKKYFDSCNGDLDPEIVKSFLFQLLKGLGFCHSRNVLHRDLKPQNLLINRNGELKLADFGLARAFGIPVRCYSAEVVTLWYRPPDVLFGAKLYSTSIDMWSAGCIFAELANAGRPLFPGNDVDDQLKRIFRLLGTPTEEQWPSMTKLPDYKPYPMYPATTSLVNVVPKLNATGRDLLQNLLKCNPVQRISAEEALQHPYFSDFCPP
Sequence of CDK5/CDK5R1 (Q15078 whole entry partner): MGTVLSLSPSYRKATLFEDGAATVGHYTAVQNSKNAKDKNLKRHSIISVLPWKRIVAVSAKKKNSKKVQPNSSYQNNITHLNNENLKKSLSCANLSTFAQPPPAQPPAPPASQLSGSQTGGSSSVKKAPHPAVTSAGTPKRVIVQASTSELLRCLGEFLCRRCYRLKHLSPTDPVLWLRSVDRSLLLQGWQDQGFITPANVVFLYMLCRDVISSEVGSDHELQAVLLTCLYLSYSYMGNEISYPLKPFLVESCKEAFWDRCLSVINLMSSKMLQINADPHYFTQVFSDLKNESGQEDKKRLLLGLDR

[4] = biological target: CDK6/Cyclin D1 (Homo sapiens, UniProt Q00534); experiment: NanoBRET live-cell target engagement, NanoLuc-CDK6/Cyclin D1 in HEK-293; format: binding; details: CDK6/D1; for pIC50: read-out: IC50
Sequence of CDK6/Cyclin D1 (Q00534 whole entry): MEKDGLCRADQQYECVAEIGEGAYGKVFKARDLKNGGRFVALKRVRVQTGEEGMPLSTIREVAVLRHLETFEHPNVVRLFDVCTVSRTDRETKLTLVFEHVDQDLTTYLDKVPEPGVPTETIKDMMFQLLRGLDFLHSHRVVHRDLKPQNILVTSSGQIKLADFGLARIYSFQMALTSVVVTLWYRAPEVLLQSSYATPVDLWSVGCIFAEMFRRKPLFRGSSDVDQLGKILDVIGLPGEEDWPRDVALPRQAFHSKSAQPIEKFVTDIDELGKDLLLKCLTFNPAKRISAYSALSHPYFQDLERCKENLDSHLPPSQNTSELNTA
Sequence of CDK6/Cyclin D1 (P24385 whole entry partner): as the sequence (P24385 whole entry partner) above

[5] = biological target: CDK7 (Homo sapiens, UniProt P50613); experiment: NanoBRET live-cell target engagement, NanoLuc-CDK7 in HEK-293; format: binding; details: CDK7; for pIC50: read-out: IC50
Sequence of CDK7 (P50613 whole entry): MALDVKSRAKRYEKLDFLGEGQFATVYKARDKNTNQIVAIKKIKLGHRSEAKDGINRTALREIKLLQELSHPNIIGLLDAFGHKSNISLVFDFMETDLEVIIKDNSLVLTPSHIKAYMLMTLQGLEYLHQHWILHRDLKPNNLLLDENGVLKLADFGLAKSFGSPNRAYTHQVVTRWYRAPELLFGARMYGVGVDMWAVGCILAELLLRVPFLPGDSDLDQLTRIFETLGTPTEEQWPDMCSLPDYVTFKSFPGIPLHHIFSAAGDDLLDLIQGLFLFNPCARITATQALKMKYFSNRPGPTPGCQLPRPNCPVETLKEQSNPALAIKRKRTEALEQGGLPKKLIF

[6] = biological target: CDK8/Cyclin C (Homo sapiens, UniProt P49336); experiment: NanoBRET live-cell target engagement, NanoLuc-CDK8/Cyclin C in HEK-293; format: binding; details: CDK8/C
Sequence of CDK8/Cyclin C (P49336 whole entry): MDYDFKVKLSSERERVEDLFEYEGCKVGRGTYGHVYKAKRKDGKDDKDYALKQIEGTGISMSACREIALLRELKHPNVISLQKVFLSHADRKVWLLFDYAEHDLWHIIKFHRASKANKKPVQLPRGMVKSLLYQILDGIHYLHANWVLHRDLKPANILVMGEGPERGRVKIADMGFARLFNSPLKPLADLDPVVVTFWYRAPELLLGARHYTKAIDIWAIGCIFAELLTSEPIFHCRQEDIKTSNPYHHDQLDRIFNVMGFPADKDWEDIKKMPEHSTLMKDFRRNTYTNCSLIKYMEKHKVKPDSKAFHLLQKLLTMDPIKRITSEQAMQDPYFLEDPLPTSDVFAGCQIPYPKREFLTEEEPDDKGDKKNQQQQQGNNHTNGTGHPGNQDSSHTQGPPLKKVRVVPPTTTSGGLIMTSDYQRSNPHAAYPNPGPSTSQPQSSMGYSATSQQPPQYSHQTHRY
Sequence of CDK8/Cyclin C (P24863 whole entry partner): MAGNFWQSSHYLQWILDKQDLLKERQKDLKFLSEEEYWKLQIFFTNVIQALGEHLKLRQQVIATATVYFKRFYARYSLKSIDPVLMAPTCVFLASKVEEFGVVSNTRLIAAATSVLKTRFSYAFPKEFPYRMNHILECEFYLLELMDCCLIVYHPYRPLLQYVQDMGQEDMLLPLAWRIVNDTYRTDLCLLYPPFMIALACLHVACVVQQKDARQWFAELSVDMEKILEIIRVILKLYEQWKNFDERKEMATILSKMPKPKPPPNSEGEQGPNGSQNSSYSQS

[7] = biological target: T1, CDK11A/Cyclin L2 (Homo sapiens, UniProt Q9UQ88); experiment: NanoBRET live-cell target engagement, CDK11A-NanoLuc/Cyclin L2 in HEK-293; format: binding; details: CDK11a/L2; for pIC50: read-out: IC50
T1 sequence (Q9UQ88 1-783): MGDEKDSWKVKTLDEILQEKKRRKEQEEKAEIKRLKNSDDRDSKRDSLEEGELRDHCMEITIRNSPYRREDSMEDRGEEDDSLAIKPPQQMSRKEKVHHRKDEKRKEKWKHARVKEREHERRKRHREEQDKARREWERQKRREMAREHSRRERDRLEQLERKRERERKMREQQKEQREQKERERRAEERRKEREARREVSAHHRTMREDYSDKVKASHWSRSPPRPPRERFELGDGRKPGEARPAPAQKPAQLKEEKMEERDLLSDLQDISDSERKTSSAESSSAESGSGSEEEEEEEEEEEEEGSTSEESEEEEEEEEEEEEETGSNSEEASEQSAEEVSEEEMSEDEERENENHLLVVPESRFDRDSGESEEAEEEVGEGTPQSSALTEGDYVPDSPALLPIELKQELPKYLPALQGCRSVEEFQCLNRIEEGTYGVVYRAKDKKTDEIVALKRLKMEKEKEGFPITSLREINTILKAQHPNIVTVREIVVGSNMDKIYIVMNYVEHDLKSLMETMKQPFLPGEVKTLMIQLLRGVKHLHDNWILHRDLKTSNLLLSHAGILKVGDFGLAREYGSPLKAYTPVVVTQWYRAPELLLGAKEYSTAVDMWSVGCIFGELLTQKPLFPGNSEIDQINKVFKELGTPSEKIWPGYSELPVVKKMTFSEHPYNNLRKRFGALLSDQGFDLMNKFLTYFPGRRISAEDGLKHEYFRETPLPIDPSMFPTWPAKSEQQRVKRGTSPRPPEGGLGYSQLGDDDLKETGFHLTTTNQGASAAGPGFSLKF

[8] = biological target: CDK11B/Cyclin L2 (Homo sapiens, UniProt P21127); experiment: NanoBRET live-cell target engagement, CDK11B-NanoLuc/Cyclin L2 in HEK-293; format: binding; details: CDK11b/L2; for pIC50: read-out: IC50
Sequence of CDK11B/Cyclin L2 (P21127 1-782 isoform P21127-2): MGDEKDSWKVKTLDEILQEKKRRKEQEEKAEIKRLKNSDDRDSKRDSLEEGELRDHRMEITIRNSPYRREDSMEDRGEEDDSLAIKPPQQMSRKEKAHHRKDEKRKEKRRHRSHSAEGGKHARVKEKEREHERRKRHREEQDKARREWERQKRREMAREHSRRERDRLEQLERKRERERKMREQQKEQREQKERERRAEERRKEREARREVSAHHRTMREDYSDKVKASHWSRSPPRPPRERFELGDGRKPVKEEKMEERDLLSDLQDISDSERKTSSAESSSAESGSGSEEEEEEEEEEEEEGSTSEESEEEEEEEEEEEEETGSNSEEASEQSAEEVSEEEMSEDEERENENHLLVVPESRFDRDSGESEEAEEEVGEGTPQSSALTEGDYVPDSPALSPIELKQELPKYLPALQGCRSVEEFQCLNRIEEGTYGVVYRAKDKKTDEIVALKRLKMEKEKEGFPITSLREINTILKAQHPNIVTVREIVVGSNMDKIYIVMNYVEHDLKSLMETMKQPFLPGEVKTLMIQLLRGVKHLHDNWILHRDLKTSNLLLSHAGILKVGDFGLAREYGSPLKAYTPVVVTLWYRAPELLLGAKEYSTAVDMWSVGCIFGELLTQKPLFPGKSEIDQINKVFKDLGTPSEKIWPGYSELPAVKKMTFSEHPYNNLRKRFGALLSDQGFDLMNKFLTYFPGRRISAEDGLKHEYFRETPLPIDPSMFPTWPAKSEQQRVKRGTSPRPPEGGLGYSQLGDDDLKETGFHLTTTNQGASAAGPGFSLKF

[9] = biological target: CDK12/Cyclin K (Homo sapiens, UniProt Q9NYV4); experiment: NanoBRET live-cell target engagement, CDK12-NanoLuc/Cyclin K in HEK-293; format: binding; details: CDK12/K
[10] = biological target: CDK13/Cyclin K (Homo sapiens, UniProt Q14004); experiment: NanoBRET live-cell target engagement, CDK13-NanoLuc/Cyclin K in HEK-293; format: binding; details: CDK13/K
[11] = biological target: CDK14/Cyclin Y (Homo sapiens, UniProt O94921); experiment: NanoBRET live-cell target engagement, CDK14-NanoLuc/Cyclin Y in HEK-293; format: binding; details: CDK14/Y; for pIC50: read-out: IC50
[12] = biological target: CDK15/Cyclin Y (Homo sapiens, UniProt Q96Q40); experiment: NanoBRET live-cell target engagement, NanoLuc-CDK15/Cyclin Y in HEK-293; format: binding; details: CDK15/Y; for pIC50: read-out: IC50
[13] = biological target: CDK16/Cyclin Y (Homo sapiens, UniProt Q00536); experiment: NanoBRET live-cell target engagement, CDK16-NanoLuc/Cyclin Y in HEK-293; format: binding; details: CDK16/Y; for pIC50: read-out: IC50
[14] = biological target: CDK17/Cyclin Y (Homo sapiens, UniProt Q00537); experiment: NanoBRET live-cell target engagement, CDK17-NanoLuc/Cyclin Y in HEK-293; format: binding; details: CDK17/Y; for pIC50: read-out: IC50
[15] = biological target: CDK18/Cyclin Y (Homo sapiens, UniProt Q07002); experiment: NanoBRET live-cell target engagement, CDK18-NanoLuc/Cyclin Y in HEK-293; format: binding; details: CDK18/Y; for pIC50: read-out: IC50
Sequence of CDK18/Cyclin Y (Q07002 whole entry): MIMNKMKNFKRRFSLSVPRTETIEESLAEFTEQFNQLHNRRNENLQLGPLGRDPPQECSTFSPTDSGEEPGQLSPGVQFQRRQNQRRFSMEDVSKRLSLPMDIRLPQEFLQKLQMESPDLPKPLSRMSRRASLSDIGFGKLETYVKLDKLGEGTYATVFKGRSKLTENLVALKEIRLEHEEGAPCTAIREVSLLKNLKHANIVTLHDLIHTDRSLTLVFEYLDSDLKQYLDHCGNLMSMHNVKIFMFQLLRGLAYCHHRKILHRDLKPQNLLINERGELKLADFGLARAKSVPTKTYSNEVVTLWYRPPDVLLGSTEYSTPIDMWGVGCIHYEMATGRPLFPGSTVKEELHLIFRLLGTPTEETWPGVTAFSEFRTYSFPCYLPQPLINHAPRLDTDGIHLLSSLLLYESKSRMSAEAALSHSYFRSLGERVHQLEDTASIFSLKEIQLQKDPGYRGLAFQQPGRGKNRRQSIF
Sequence of CDK18/Cyclin Y (Q8ND76 whole entry partner): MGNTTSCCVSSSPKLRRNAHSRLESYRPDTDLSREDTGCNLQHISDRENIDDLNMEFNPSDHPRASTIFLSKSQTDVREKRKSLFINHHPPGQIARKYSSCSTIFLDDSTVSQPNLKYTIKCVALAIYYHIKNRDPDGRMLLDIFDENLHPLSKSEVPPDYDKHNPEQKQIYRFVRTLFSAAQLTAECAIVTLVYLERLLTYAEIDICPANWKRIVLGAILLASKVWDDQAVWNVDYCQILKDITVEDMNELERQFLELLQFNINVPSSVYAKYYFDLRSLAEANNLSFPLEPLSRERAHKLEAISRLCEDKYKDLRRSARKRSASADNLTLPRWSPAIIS

[16] = biological target: CDK20/Cyclin H (Homo sapiens, UniProt Q8IZL9); experiment: NanoBRET live-cell target engagement, NanoLuc-CDK20/Cyclin H in HEK-293; format: binding; details: CDK20/H
[17] = biological target: CDK19/Cyclin C (Homo sapiens, UniProt Q9BWU1); experiment: NanoBRET live-cell target engagement, NanoLuc-CDK19/Cyclin C in HEK-293; details: CDK19/C
[18] = biological target: CDK10/Cyclin L2 (Homo sapiens, UniProt Q15131); experiment: NanoBRET live-cell target engagement, CDK10-NanoLuc/Cyclin L2 in HEK-293; details: CDK10/L2
Sequence of CDK10/Cyclin L2 (Q15131 whole entry): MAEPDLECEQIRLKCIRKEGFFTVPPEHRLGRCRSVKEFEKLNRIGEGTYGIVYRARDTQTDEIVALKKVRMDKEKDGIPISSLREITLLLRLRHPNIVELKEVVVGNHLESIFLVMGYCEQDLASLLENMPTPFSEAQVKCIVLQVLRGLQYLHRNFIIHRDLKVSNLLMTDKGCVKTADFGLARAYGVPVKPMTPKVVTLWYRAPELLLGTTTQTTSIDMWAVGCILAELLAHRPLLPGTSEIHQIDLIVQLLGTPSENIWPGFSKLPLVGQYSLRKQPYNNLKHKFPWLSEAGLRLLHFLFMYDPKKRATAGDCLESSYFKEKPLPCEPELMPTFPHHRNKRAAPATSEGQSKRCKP

CS(=O)(=O)N1CCC(NC(=O)c2[nH]ncc2NC(=O)c2c(Cl)cccc2Cl)CC1 [NVP-LCQ195]
Inhibition at 10µM (%) ([1]; average): 92.5%
pIC50 ([1]; average (± SEM where n=3)): 7.08
Inhibition at 10µM (%) ([1]; experiment 1): 94.8%
pIC50 ([1]; experiment 1): 7.24
Inhibition at 10µM (%) ([1]; experiment 2): 90.2%
pIC50 ([1]; experiment 2): 6.97
Inhibition at 10µM (%) ([2]; average): 94.3%
pIC50 ([2]; average (± SEM where n=3)): 7.82
Inhibition at 10µM (%) ([2]; experiment 1): 100.8%
pIC50 ([2]; experiment 1): 7.72
Inhibition at 10µM (%) ([2]; experiment 2): 87.9%
pIC50 ([2]; experiment 2): 7.96
Inhibition at 10µM (%) ([3]; average): 93.1%
pIC50 ([3]; average (± SEM where n=3)): 7.51
Inhibition at 10µM (%) ([3]; experiment 1): 90.4%
pIC50 ([3]; experiment 1): 7.43
Inhibition at 10µM (%) ([3]; experiment 2): 95.7%
pIC50 ([3]; experiment 2): 7.60
Inhibition at 10µM (%) ([4]; average): 99.2%
pIC50 ([4]; average (± SEM where n=3)): 7.82
Inhibition at 10µM (%) ([4]; experiment 1): 98.6%
pIC50 ([4]; experiment 1): 7.74
Inhibition at 10µM (%) ([4]; experiment 2): 99.9%
pIC50 ([4]; experiment 2): 7.92
pIC50 ([5]; average (± SEM where n=3)): 7.16
Inhibition at 10µM (%) ([5]; experiment 1): 86.7%
pIC50 ([5]; experiment 1): 7.17
Inhibition at 10µM (%) ([5]; experiment 2): 89.1%
pIC50 ([5]; experiment 2): 7.15
Inhibition at 10µM (%) ([6]; average): 31.8%
Inhibition at 10µM (%) ([6]; experiment 1): 33.3%
Inhibition at 10µM (%) ([6]; experiment 2): 30.3%
Inhibition at 10µM (%) ([7]; average): 94.0%
pIC50 ([7]; average (± SEM where n=3)): 6.80
Inhibition at 10µM (%) ([7]; experiment 1): 93.9%
pIC50 ([7]; experiment 1): 6.65
Inhibition at 10µM (%) ([7]; experiment 2): 94.1%
pIC50 ([7]; experiment 2): 7.02
Inhibition at 10µM (%) ([8]; average): 94.8%
pIC50 ([8]; average (± SEM where n=3)): 7.43
Inhibition at 10µM (%) ([8]; experiment 1): 95.4%
pIC50 ([8]; experiment 1): 7.46
Inhibition at 10µM (%) ([8]; experiment 2): 94.2%
pIC50 ([8]; experiment 2): 7.41
Inhibition at 10µM (%) ([9]; average): 24.3%
Inhibition at 10µM (%) ([9]; experiment 1): 26.4%
Inhibition at 10µM (%) ([9]; experiment 2): 22.1%
Inhibition at 10µM (%) ([10]; average): 20.5%
Inhibition at 10µM (%) ([10]; experiment 1): 29.4%
Inhibition at 10µM (%) ([10]; experiment 2): 11.5%
Inhibition at 10µM (%) ([11]; average): 90.1%
pIC50 ([11]; average (± SEM where n=3)): 6.33
Inhibition at 10µM (%) ([11]; experiment 1): 90.7%
pIC50 ([11]; experiment 1): 6.22
Inhibition at 10µM (%) ([11]; experiment 2): 89.6%
pIC50 ([11]; experiment 2): 6.48
Inhibition at 10µM (%) ([12]; average): 92.4%
pIC50 ([12]; average (± SEM where n=3)): 6.42
Inhibition at 10µM (%) ([12]; experiment 1): 93.0%
pIC50 ([12]; experiment 1): 6.27
Inhibition at 10µM (%) ([12]; experiment 2): 91.9%
pIC50 ([12]; experiment 2): 6.66
pIC50 ([13]; average (± SEM where n=3)): 7.89
Inhibition at 10µM (%) ([13]; experiment 1): 92.7%
pIC50 ([13]; experiment 1): 7.96
Inhibition at 10µM (%) ([13]; experiment 2): 92.6%
pIC50 ([13]; experiment 2): 7.85
Inhibition at 10µM (%) ([14]; average): 92.4%
pIC50 ([14]; average (± SEM where n=3)): 7.96
Inhibition at 10µM (%) ([14]; experiment 1): 92.3%
pIC50 ([14]; experiment 1): 7.85
Inhibition at 10µM (%) ([14]; experiment 2): 92.4%
pIC50 ([14]; experiment 2): 8.11
Inhibition at 10µM (%) ([15]; average): 97.0%
pIC50 ([15]; average (± SEM where n=3)): 6.62
Inhibition at 10µM (%) ([15]; experiment 1): 93.5%
pIC50 ([15]; experiment 1): 6.51
Inhibition at 10µM (%) ([15]; experiment 2): 100.6%
pIC50 ([15]; experiment 2): 6.78
Inhibition at 10µM (%) ([16]; experiment 1): 26.0%
Inhibition at 10µM (%) ([16]; experiment 2): 16.0%
Inhibition at 10µM (%) ([17]; average): 37.8%
Inhibition at 10µM (%) ([17]; experiment 1): 38.7%
Inhibition at 10µM (%) ([17]; experiment 2): 37.0%
Inhibition at 10µM (%) ([18]; average): 70.2%
Inhibition at 10µM (%) ([18]; experiment 1): 74.4%
Inhibition at 10µM (%) ([18]; experiment 2): 66.1%
